Results: US11365177B2, “Chemical uncouplers of respiration and methods of use thereof” (Dana-Farber Cancer Institute, Inc., priority 2017, dated 2022)

Assays:
[1] = test system: C2C12 cells; test: Measurement of cellular respiration (Seahorse), uncoupling bioactivity; type: cell-based; conditions: Mus musculus, Table 5, cyclic head groups, 50 μM compound, maximal increase versus basal oligomycin-treated respiration, means SEM, n=3-6/group, read-out: % stimulation of respiration (baseline = 100%)
Description: Oligomycin was purchased from EMD Millipore, and FCCP and rotenone were purchased from Sigma. C2C12 cells were seeded at 35,000 cells/well in an XF24 cell culture microplate (V7-PS, Seahorse Bioscience) and analyzed the following day. On the day of analysis, the cells were washed once with Seahorse respiration buffer (8.3 g/l DMEM, 1.8 g/l NaCl, 1 mM pyruvate, 20 mM glucose, pen/strep), placed in 0.5 ml Seahorse respiration buffer, and incubated in a CO2-free incubator for 1 h. Port injection solutions were prepared as follows (final concentrations in assay in parentheses): 10 μM oligomycin (1 μM final), 500 μM indicated compound (50 μM final), 2 μM FCCP (0.2 μM final), and 30 μM rotenone (3 μM final). The Seahorse program was run as follows: basal measurement, 3 cycles; inject port A (oligomycin), 3 cycles; inject port B (compounds), 8 cycles; inject port C (FCCP), 3 cycles; inject port D (rotenone), 3 cycles. Each cycle consisted of mix 2 min, wait 0 min, and measure 2 min. For data expressed as a percentage of oligomycin-treated basal, the respiration at cycle 6 was normalized to 100%, and the maximum respiration at any time point between cycles 7 and 15 inclusive was used.
Tables 1-4 show uncoupling bioactivity of compounds of the disclosure with different fatty acid side chains. Respiration in C2C12 cells is shown as maximal increases versus basal oligomycin-treated respiration, which is normalized to 100%. Data are shown as means SEM, n=3-6/group.

[2] = test system: DIO mice; test: Treatment of DIO mice with compound: body weight and food intake; type: in vivo
Description: DIO mice (19 weeks, males, stock #380050) were purchased from The Jackson Laboratory. Mice were maintained on a high fat diet for the duration of the experiment (60% fat, Research Diets). Prior to compound administration, mice were mock injected with vehicle (18:1:1 v/v/v saline:DMSO:Kolliphor EL, intraperitoneal) for 4 days. Compound 33 was prepared in the same vehicle and administered at 5 μl/g body weight at the indicated doses. Administration of vehicle of compound occurred once per day. Data shown in FIG. 4A compared changes in body weights of representative mice at day 7 versus initial weight on day 0. Data shown in FIG. 4B represented average food intake per mouse over the 7 day dosing period for each treatment group.

[3] = biological target: T1, mPM20D1 (Mus musculus, UniProt Q8C165); test: PM20D1 hydrolysis assay; type: in vitro ADME, murine; conditions: 10 nmol compound in 100 μl PBS, mPM20D1, 1 h at 37° C., LC-MS; FIG. 2
T1 construct: host or cells: 293T cells (secreted into serum-free conditioned media)
T1 sequence (Q8C165 25-503): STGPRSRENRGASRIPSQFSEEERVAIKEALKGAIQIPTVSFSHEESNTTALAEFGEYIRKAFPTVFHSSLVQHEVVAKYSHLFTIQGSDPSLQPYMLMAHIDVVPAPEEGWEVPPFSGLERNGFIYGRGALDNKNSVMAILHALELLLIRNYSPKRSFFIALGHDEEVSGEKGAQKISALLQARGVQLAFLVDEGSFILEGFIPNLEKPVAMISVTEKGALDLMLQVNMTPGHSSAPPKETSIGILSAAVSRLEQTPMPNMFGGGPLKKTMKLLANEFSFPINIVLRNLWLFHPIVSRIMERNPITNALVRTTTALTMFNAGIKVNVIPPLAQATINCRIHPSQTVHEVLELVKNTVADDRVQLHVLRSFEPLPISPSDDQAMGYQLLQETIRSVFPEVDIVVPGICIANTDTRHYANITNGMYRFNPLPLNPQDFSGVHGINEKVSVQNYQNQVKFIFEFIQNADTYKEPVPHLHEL
Description: Three 10 cm plates of 293T cells were transiently transfected with murine PM20D1-6×His-Flag plasmid (Addgene plasmid #84566) using PolyFect according to the manufacturer's instructions. After 48 h, cells were washed twice in PBS and switched to serum free DMEM with penicillin and streptomycin. Serum free conditioned media was collected 24 h later and concentrated ˜10-fold in 30 kDa MWCO filters (EMD Millipore) according to the manufacturer's instructions. The concentrated media was centrifuged to remove debris (600×g, 10 min, 4° C.) and the supernatant containing PM20D1-flag was decanted into a new tube. PM20D1-flag was immunoaffinity purified overnight at 4° C. from the concentrated media using magnetic Flag-M2 beads (Sigma Aldrich). The beads were collected, washed three times in PBS, eluted with 3× Flag peptide ([…] in PBS, Sigma Aldrich), aliquoted, and stored at −80° C.
10 nmol of the indicated compound was incubated in 100 μl PBS (100 VM initial substrate). Reactions were initiated by the addition of PBS or mPM20D1 (5 μl). After 1 h at 37° C., reactions were quenched with […] of a 2:1 v/v mixture of chloroform and methanol with 10 nmol d31-palmitate as an internal standard. The reactions were vortexed and the organic layer was transferred to a sample vial for analysis by LC-MS. For separation of polar metabolites, normal-phase chromatography was performed with a Luna-[…] NH2 column (50 mm×4.60 mm, Phenomenex). Mobile phases were as follows: Buffer A, acetonitrile; Buffer B, 95:5 water/acetonitrile with 0.1% formic acid or 0.2% ammonium hydroxide with 50 mM ammonium acetate for positive and negative ionization mode, respectively. The flow rate for each run started at 0.2 ml/min for 2 min, followed by a gradient starting at 0% B and increasing linearly to 100% B over the course of 15 min with a flow rate of 0.7 ml/min, followed by an isocratic gradient of 100% B for 10 min at 0.7 ml/min before equilibrating for 5 min at 0% B with a flow rate of 0.7 ml/min. MS analysis was performed with an electrospray ionization (ESI) source on an Agilent 6430 QQQ LC-MS/MS. The capillary voltage was set to 3.5 kV, and the fragmentor voltage was set to 100 V. The drying gas temperature was 325° C., the drying gas flow rate was 10 l/min, and the nebulizer pressure was 45 psi. Monitoring of hydrolysis starting materials and products was performed by scanning a mass range of m/z 50-1200. Peaks corresponding to the liberated fatty acids (products) or the intact starting material was integrated.

[4] = Plasma concentration after compound administration in DIO mice; type: in vivo; conditions: 10 mg/kg, 1 hour after administration, FIG. 5
Description: DIO mice (19 weeks, males, stock #380050) were purchased from The Jackson Laboratory. Prior to compound administration, mice were mock injected with vehicle (18:1:1 v/v/v saline:DMSO:Kolliphor EL) for 4 days. Compounds 33 and 37 were prepared in the same vehicle and administered at 10 mg/kg doses. Plasma concentration was measured 1 hour after compound administration.

[5] = Liver microsome stability assay; type: in vitro ADME; conditions: mouse liver microsomes 1 mg/mL, 1 μM compound, NADPH, pH 7.4, 37 C; FIG. 3
Description: The compounds were evaluated in a mouse liver microsome assay.
Microsome stability was evaluated by incubating 1 μM test compound with 1 mg/mL hepatic microsomes in 100 mM KPi, pH 7.4 at 37 C with shaking. The reaction was initiated by adding NADPH (1 mM final concentration). Aliquots were removed at 0, 5, 10, 20, 40, and 60 minutes and added to acetonitrile (5× v:v) to stop the reaction and precipitate the protein. NADPH dependence of the reaction was evaluated with -NADPH samples. At the end of the assay, the samples were centrifuged through a Millipore Multiscreen Solvinter 0.45 micron low binding PTFE hydrophilic filter plate and analyzed by LC-MS/MS. Data is log transformed and represented as half-life.

Row | SMILES | activity at 50 µM [1] [%] | uncoupling bioactivity in vivo ([2]; DIO mice on high fat diet, intraperitoneal, once per day) | average food consumed per mouse per day ([2]; DIO mice, different treatment groups, 7 day dosing period, FIG. 4B) | change in body weight from the initial weight ([2]; DIO mice, higher doses, once per day, day 7 versus day 0, FIG. 4A) | hydrolysis by PM20D1 [3] | pharmacokinetic properties in vivo (plasma concentration) [4] | microsome stability (in vitro half-life) [5]
1 | CCCCCCCC/C=C\CCCCCCCC(=O)N1Cc2ccccc2[C@H]1C(=O)O [Compound 33, (S)-2-Oleoylisoindoline-1-carboxylic acid] | 240 ± 24 | possesses uncoupling bioactivity in vivo | consumed the same amount of food per mouse per day | statistically significant weight loss over time | entirely resistant to hydrolysis by PM20D1 | augmented pharmacokinetic properties in vivo | long in vitro half-lives
2 | CCCCCCCC/C=C\CCCCCCCC(=O)N1Cc2ccccc2[C@@H]1C(=O)O [Compound 34, (R)-2-Oleoylisoindoline-1-carboxylic acid] | 190 ± 12 | – | – | – | entirely resistant to hydrolysis by PM20D1 | – | long in vitro half-lives
3 | CCCCC/C=C\C/C=C\CCCCCCCC(=O)N1Cc2ccccc2[C@H]1C(=O)O [Compound 36, (S)-2-((9Z,12Z)-Octadeca-9,12-dienoyl)isoindoline-1-carboxylic acid] | 185 ± 18 | – | – | – | entirely resistant to hydrolysis by PM20D1 | – | long in vitro half-lives
4 | CCCCC/C=C\C/C=C\CCCCCCCC(=O)N1Cc2ccccc2[C@@H]1C(=O)O [Compound 37, (R)-2-((9Z,12Z)-Octadeca-9,12-dienoyl)isoindoline-1-carboxylic acid] | 190 ± 12 | – | – | – | entirely resistant to hydrolysis by PM20D1 | augmented pharmacokinetic properties in vivo | long in vitro half-lives
